How the values were obtained:
DSS colitis = experiment: Mouse model of DSS colitis; assay type: in vivo
Procedure: Mouse model of DSS colitis. WT or Ella/hyal1 mice provided 3% DSS in their drinking water for 7 days and body weight measured every day. For HA digestion by PEGPH20, Mice were intravenously injected PEGPH20 (10 mg/kg) every 3 days 24 hour prior to start DSS water feeding. For Adipogenesis inhibition by PPARg inhibitor, Mice were intraperitonealy injected 120 mg/kg every single day 48 hour prior to start DSS water feeding. Mice were sacrificed after 5 and 7 days. Distal colon, mesenteric fat and blood were collected for RNA, Bacterial culture assay and toxin analysis.
(§1) Reverse transcription-quantitative PCR (RTqPCR) analyses. RTqPCR was used to determine the mRNA abundance. Total cellular RNA was extracted using the PureLink RNA Mini Kit(Life Technologies Corporation, Grand Island, N.Y.) and mRNA were purified by using Dynabeads mRNA Purification Kit(Life technologies). 100 ng of mRNA was reverse transcribed to cDNA using iScript cDNA synthesis kit (BIO-RAD LABORATORIES, INC, Hercules, Calif.). Quantitative, real-time PCR was performed on the CFX96 real time system (Biorad) using predeveloped Taqman gene expression assay (Applied Biosystems). The expression of βActin gene was used as a house keeping gene to normalize data.
(§2) Histology and immunohistochemistry (IHC). Tissue biopsies were directly embedded in OCT compound or paraffin. Paraffin embedded tissues are used for Hematoxylin/Eosin (H&E) staining, and frozen sections were fixed in 4% PFA for 20 mins or 100% Aceton prior to immunofluorescence staining. For IHC, fixed and permeabilized tissue sections were blocked with Image-iT FX reagent (invitrogen) before incubating with primary antibodies followed by appropriate 488- or 568-coupled secondary antibodies. Nuclei were counterstained with DAPI. All images were taken with an Olympus BX41 microscope (widefield) or Zeiss LSM510 confocal microscope as indicated.
Flow cytometry analyses. Colon collected from control or DSS-treated mice was cut into small pieces then digested with 2.5 mg/mL Collagenase D and 30 ng/mL DNAse1 for 2 hours at 37° C. then filtered through a 30 μm filter to generate single cell suspension for FACS analyses. Cells were then stained with zombie violet viability dye (BioLegend, 423114), blocked with anti-mouse CD16/32 (eBioscience, 14016185), followed by staining with antibody cocktails for preadipocytes or immune cells. The antibody cocktail for preadipocytes includes AF488-SMA (eBioscience, 53976082), PECy7-CD45 (BioLegend, 147704), PerCy5.5-CD31 (BioLegend, 102522), PE-Thyl (BioLegend, 105308), APC-PDGFRa (eBioscience, 17140181), BV605-SCA1 (BioLegend, 108133) and AF700-CD24 (BioLegend, 108136). The antibody cocktail for immune cells includes PECy7-CD11b (BioLegend, 101216), FITC-Ly6G (eBioscience, 11593182), PE-F4/80 (eBioscience,12480182), APC-CD11C (BioLegend, 117310), AF700-MHCII (eBioscience, 56532182) and APC-Cy7-CD3 (BioLegend, 100222). FACS analyses for surface expression of preadipocyte or immune cell markers were performed by the BD FACSCanto RUO machine and analyzed by FlowJo V10 software. Dead cells stained positive with zombie violet dye were excluded from the analyses.
Serum Endotoxin analyses. Mouse serum was separated from mouse whole blood using serum separator tubes (Becton, Dickinson and Company). Mouse serum Endotoxin levels were quantified by ToxinSensor Chromogenic LAL Endotoxin Assay Kit (GenScript).
Hyaluronan (HA) analysis. Glucosaminoglycan (GAG) including HA were extracted from 3T3L1 supernatant and Murine skin and colon. Samples were homogenized and treated overnight with protease (0.16 mg/ml; Sigma-Aldrich) to degrade protein, followed by purification by anion exchange chromatography using DEAE sephacel (Amersham Biosciences). Columns were washed with a low-salt buffer (0.15 M NaCl in 20 mM sodium acetate; pH 6.0) and eluted with 1 M NaCl. Glycans were desalted by PD10 (GE Healthcare). HA concentration were measured ELISA Duo Set (R&D Systems). […]

[1] = mouse, in vivo
[2] = tested on: mouse preadipocytes (3T3L1); experiment: In vitro adipocyte differentiation of 3T3L1 preadipocytes; assay type: cell-based
Procedure: Preadipocyte culture. The preadipocyte cell line 3T3-L1 was purchased from ATCC (CL-173) lot 59239597. 3T3-L1 cells were grown in preadipocyte proliferation medium stock (Cell applications, San Diego, Calif.), and P4˜P7 cells were used for in vitro differentiation. To induce differentiation, two days post-confluent 3T3-L1 cells were switched to adipocyte differentiation medium containing insulin, dexamethasone, and IBMX. (Cell applications, San Diego, Calif.), and medium was changed to fresh medium at day 2 and 4. To generate differentiated adipocytes for comparison studies between 3T3-L1 preadipocytes and adipocytes, 3T3-L1 cells were differentiated for 3 days followed by two days culture in Preadipocyte growth media. (Cell applications, San Diego, Calif.) before RNA or protein extraction.
as §1
Hyaluronan (HA) analysis. Glucosaminoglycan (GAG) including HA were extracted from 3T3L1 supernatant and Murine skin and colon. Samples were homogenized and treated overnight with protease (0.16 mg/ml; Sigma-Aldrich) to degrade protein, followed by purification by anion exchange chromatography using DEAE sephacel (Amersham Biosciences). Columns were washed with a low-salt buffer (0.15 M NaCl in 20 mM sodium acetate; pH 6.0) and eluted with 1 M NaCl. Glycans were desalted by PD10 (GE Healthcare). HA concentration were measured ELISA Duo Set (R&D Systems). The size distribution of HA was analyzed by agarose gel electrophoresis 41. The HA sample was mixed with TAE buffer containing 2 M sucrose and electrophoresed at 2 V/cm for 10 hours at room temperature. The gel was stained overnight under light-protective cover at room temperature in a solution containing 0.005% Stains-All in 50% ethanol, and destained in water. Hyalose ladders (Hyalose) were used for standards.

[3] = tested on: S. aureus strain USA300/MRSA skin infection; experiment: Mouse model of S. aureus skin infection; assay type: in vivo
Procedure: Mouse model of S. aureus skin infection. Staphylococcus aureus strain USA300/MRSA was used for infection. Briefly, the backs of sex-matched and age-matched adult wildtype or Ella/Hyal1 mice were shaved and hair removed by chemical depilation (Nair) then injected subcutaneously with 100 μl of a mid-logarithmic growth phase of S. aureus (2×10^6 CFU of bacteria) in PBS. Mice were sacrificed after day 3 and 8 mm skin punch biopsy comprising the center of the injection site was harvested. Infected skin surrounding the infection center (6˜8 mm) avoid of center abscess was carefully dissected out for RNA extraction or CFU determination. Skin biopsies were homogenized in 1 ml Trizol (for RNA) or PBS (for CFU counting) with 2 mm zirconia beads in a mini-bead beater 16 (Biospect, Bartlesville, Okla.). To count CFU, homogenized skin samples were serially diluted, plated onto Tryptic Soy Agar, and enumerated after 18 hours to quantify the CFU per gram of tissue. For some experiments, PEGPH20(10 mg/kg) was injected intravenously starting from 1 day prior to infection, and vehicle (10 mmol/L histidine, 130 mmol/L NaCl at pH 6.5) was used as control.
as §1, §2

[4] = BADGE compared with hyaluronidase
[5] = 3T3L1 differentiation, 20 ug/ml PEGPH20

Row | Compound | magnitude of inhibition of inflammation of the colon (DSS colitis; [4]) | preventing DSS induced colon injury (colon length, histology, microbial translocation) (DSS colitis; [4]) | expression of TNFα in colon (DSS colitis; DSS colitis, BADGE 120 mg/kg intraperitoneally every day from 48 hour prior to DSS) | Pref-1 expression in the colon (DSS colitis; PPARg inhibitor) | effect on health or behavior of mice [1] | lipid droplets within cells (Bodipy) ([2]; 3T3L1, day 2 of differentiation, 20 ug/ml PEGPH20) | expression of Zfp521 mRNA [2, 5] | expression of adiponectin (Adipoq) mRNA [2, 5] | expression of antimicrobial peptide cathelicidin (Camp) [2, 5] | expression of zfp423 mRNA ([2]; adipocyte differentiation with added hyaluronidase) | adipogenesis / adipocyte differentiation in vitro ([2]; cultured preadipocytes) | lesion size ([3]; S. aureus skin infection) | expression of Camp ([3]; infected skin) | expression of IL-6 ([3]; infected skin) | gross inflammatory response of the skin to infection ([3]; mouse, in vivo) | decrease in body weight (DSS colitis; 3% DSS, by day 5) | expression of tumor necrosis factor alpha (TNFα) in colon (DSS colitis; DSS colitis, hyaluronidase delivery, vs control colitis group) | gross inflammatory response of the colon to DSS (DSS colitis; mouse, in vivo)
1 | CC(C)(c1ccc(OCC2CO2)cc1)c1ccc(OCC2CO2)cc1 (stereo not drawn) [BADGE, Bisphenol A diglycidyl ether] | less | lesser effect than hyaluronidase | inhibited expression | inhibited | – | – | – | – | – | – | – | – | – | – | – | – | – | –
2 | hyaluronidase | – | – | – | – | No effect | decreased lipid droplets | decreased mRNA | decreased mRNA | decreased | decreased mRNA | inhibited adipocyte differentiation | decreased lesion size | decreased | decreased expression | significant decrease | lesser decrease in body weight | decreased expression | significant decrease

Reference: patent US11439659B2, “Methods and compositions to prevent and treat inflammation and allergic reactions” (priority 2018, dated 2022)
